Data reported in US20100056565A1, “Heterocyclic Derivatives as M3 Muscarinic Receptors” (priority 2007, published 2010).
pIC50, pKi: −log10 of the molar value. Structures can show the parent of a compound that is named as a salt. Where two headings read alike, the source gives them in different places.

Tests used:
[1] = test system: Isolated Guinea Pig Trachea; assay: Potency in isolated guinea pig trachea, inhibition of EFS-stimulated contraction; conditions: Cavia porcellus, electrical field stimulation
Method: Experiments were carried out at 37° C. in modified Krebs-Henseleit solution, (114 mM NaCl, 15 mM NaHCO3, 1 mM MgSO4, 1.3 mM CaCl2, 4.7 mM KCl, 11.5 mM glucose and 1.2 mM KH2PO4, pH 7.4) gassed with 95% O2/5% CO2. Indomethacin was added to a final concentration of 3 μM
Tracheae were removed from adult male Dunkin Hartley Guinea pigs and dissected free of adherent tissue before being cut open longitudinally in a line opposite the muscle. Individual strips of 2-3 cartilage rings in width were cut and suspended using cotton thread in 10 mL water-jacketed organ baths and attached to a force transducer ensuring that the tissue is located between two platinum electrodes. Responses were recorded via a MP100W/Acknowledge data acquisition system connected to a PC. Tissues were equilibrated for one hour under a resting tone of 1 g and were then subjected to electrical field stimulation at a frequency of 80 Hz with a pulse width of 0.1 ms, a unipolar pulse, triggered every 2 minutes. A “voltage-response” curve was generated for each tissue and a submaximal voltage then applied to every piece of tissue according to its own response to voltage. Tissues were washed with Krebs solution and allowed to stabilize under stimulation prior to addition of test compound. Concentration response curves were obtained by a cumulative addition of test compound in half-log increments. Once the response to each addition had reached a plateau the next addition was made. Percentage inhibition of EFS-stimulated contraction is calculated for each concentration of each compound added and dose response curves constructed using Graphpad Prism software and the IC50 calculated for each compound.

[2] = target: T1, Recombinant human M3 receptor (Homo sapiens, UniProt P20309); assay: biochemical; format: binding
T1 construct: expressed in transfected cells; host or cells: CHO-K1 cells (membranes)

[3] = M3, SPA format assay, read-out: Ki in the SPA format assay
[4] = SPA format, read-out: M3 Ki (SPA format)

T1 sequence (P20309 whole entry): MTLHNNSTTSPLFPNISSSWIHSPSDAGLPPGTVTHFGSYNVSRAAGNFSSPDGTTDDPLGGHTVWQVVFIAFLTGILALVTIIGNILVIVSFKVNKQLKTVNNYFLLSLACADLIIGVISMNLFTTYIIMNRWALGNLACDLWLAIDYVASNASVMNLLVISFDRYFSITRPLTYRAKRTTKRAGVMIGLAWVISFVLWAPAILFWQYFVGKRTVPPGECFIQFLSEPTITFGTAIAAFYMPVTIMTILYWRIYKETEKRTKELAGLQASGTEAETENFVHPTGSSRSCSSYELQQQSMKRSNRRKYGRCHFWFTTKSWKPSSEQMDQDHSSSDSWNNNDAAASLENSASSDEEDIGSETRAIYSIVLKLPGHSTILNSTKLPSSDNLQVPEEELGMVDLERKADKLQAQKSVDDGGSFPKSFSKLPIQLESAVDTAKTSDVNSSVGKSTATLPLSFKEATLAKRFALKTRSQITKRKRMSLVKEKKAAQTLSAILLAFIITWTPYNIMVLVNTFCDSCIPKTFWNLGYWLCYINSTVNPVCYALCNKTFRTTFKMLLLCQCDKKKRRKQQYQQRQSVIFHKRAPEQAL

Compound: O[C@](c1ccccc1)(c1ncc(C[N+]23CCC(CC2)[C@@H](COc2ccccc2)C3)o1)C1CCCCC1 [Example 25, (R)-1-[2-((R)—Cyclohexyl-hydroxy-phenyl-methyl)-oxazol-5-ylmethyl]-3-phenoxymethyl-1-azonia-bicyclo[2.2.2]octane; bromide]
- pIC50 [1]: 8.72
- pKi [2, 3]: 9.89
- pKi [2, 4]: > 8.30

Compound: OC(c1ccccc1)(c1ccccc1)c1noc(C[N+]23CCC(CC2)[C@@H](Oc2ccc(F)cc2)C3)n1 [Example 95, (R)-3-(4-Fluoro-phenoxy)-1-[3-(hydroxy-diphenyl-methyl)-[1,2,4]oxadiazol-5-ylmethyl]-1-azonia-bicyclo[2.2.2]octane; chloride]
- pIC50 [1]: 9.22
- pKi [2, 3]: 9.77
- pKi [2, 4]: > 8.30

Compound: O[C@](c1ccccc1)(c1ncc(C[N+]23CCC(CC2)[C@@H](OCc2ccccc2)C3)o1)C1CCCC1 [Example 42, (R)-3-benzyloxy-1-[2-((R)-cyclopentyl-hydroxy-phenyl-methyl)-oxazol-5-ylmethyl]-1-azonia-bicyclo[2.2.2]octane; formate]
- pIC50 [1]: 9.15
- pKi [2, 3]: 10.05
- pKi [2, 4]: > 8.30

Compound: OC(c1ccccc1)(c1cc(C[N+]23CCC(CC2)[C@@H](Sc2ccccc2)C3)on1)C1CCCCC1 (single isomer, unassigned) [Example 70, 1-[3-(Cyclohexyl-hydroxy-phenyl-methyl)-isoxazol-5-ylmethyl]-3-phenylsulfanyl-1-azonia-bicyclo[2.2.2]octane; chloride]
- pIC50 [1]: 8.55
- pKi [2, 3]: 9.19
- pKi [2, 4]: > 8.30
